# From the METLIN SMRT retention time set (Domingo-Almenara et al. 2019)
# Assay: gradient 5% acetonitrile 3 min, to 50% in 2 min, to 85% in 15 min, held 3 min, 100 µL/min
# Conditions: column: Zorbax Extend-C18 2.1 x 50 mm; eluents: water / acetonitrile, 0.1% formic acid
# In short: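 The system's dead and dwell volumes were 40 μL and 900 μL, with a Zorbax Extend-C18 column (2.1 × 50 mm, 1.8 μm) run at 100 μL/min in water and acetonitrile containing 0.1% formic acid each. Pure standards were analyzed in mixtures of ~100 molecules by HPLC–quadrupole time-of-flight mass spectrometry in positive and negative ionization mode. Retention time was assigned from computationally picked, manually inspected adduct peaks.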
row,Compound,RP-LC retention time [s]
1,Cc1noc([C@@H]2CN(Cc3c(F)cccc3Cl)C[C@H]2CO)n1,605
2,Cc1ccccc1NC(=O)N1CCCN(c2ccc(=O)n(-c3ccccc3)n2)CC1,720
3,CC1CCN(CCNC(=O)c2cccc3c2SCCC3=O)CC1,588
4,O=C(Nc1cccc(C(=O)N2CCN(c3cccc(Cl)c3)CC2)c1)C1=CSCCO1,953
5,Cn1cccc1C(=O)C(=O)Nc1ccc2c(c1)OCCO2,842
6,CCCN1CCN(C(=O)C2CCCN(S(=O)(=O)c3cc(-c4noc(CC)n4)cs3)C2)CC1 (centres undefined),665
7,CCCn1cc(S(=O)(=O)Nc2ccccc2)c2cccnc21,838
8,CCn1cc(CC(=O)NCCC(C)C)c2cccnc21,706
9,CCN1CCN(C(=O)C2CCN(c3nc4cccnc4s3)CC2)CC1,570
10,Cc1ccc(CCNC(=O)C2CCN(C(=O)c3sccc3-n3cccc3)CC2)cc1,882
11,CCn1ncc(NC(=O)CCc2ccccc2)c(N2CCOCC2)c1=O,800
12,Cc1[nH]c(=O)[nH]c(=O)c1CC(=O)Nc1cccc(NS(C)(=O)=O)c1,549
13,CC1=C(c2cccc(Cl)c2)S(=O)(=O)N=C1N1CCCN(C(=O)c2ccsc2)CC1,851
14,O=C(NCc1ccccc1F)c1ccc2c(c1)CN(CC1=Cc3ccccc3OC1)CCO2,755
15,O=C(CCc1conc1-c1cccc(F)c1)NCc1ccc(F)cc1,899
16,O=c1n(Cc2ccccc2F)nc2c(S(=O)(=O)N3CCCCC3)cccn12,891
17,O=C(CN1CCN(C(=O)Nc2ccc(Cl)cc2)CC1=O)N1CCN(c2ccc(F)cc2)CC1,766
18,CCC(O)c1nc2ccccc2n1CC(=O)N1CCOCC1 (centres undefined),566
19,CCCN1CCN(CCCNC(=O)C2CCCN(S(=O)(=O)c3ccc4c(ccn4C)c3)C2)CC1 (centres undefined),598
20,Cc1ccc2c(c1)N(C(=O)Cn1cnc3nc4c(cc3c1=O)CCCC4)CCO2,782
21,COCCN1C(=O)[C@H]2CN(Cc3ccccc3C(F)(F)F)C[C@H]2C1=O,849

row,Compound,RP-LC retention time [s]
1,O=C(Nc1cccnc1)C1CCN(S(=O)(=O)c2cccnc2)CC1,591
2,Cc1ccc2[nH]cc(CCN3CC(C(=O)N4CCCCCC4)CC3=O)c2c1 (centres undefined),800
3,Cc1[nH]c(C(=O)N2CCC(CC(=O)NCCCN3CCN(c4ccc(F)cc4)CC3)CC2)c(C)c1C,675
4,O=C(CSc1cc(NCc2ccccc2Cl)ncn1)NC1CCCC1,794
5,NS(=O)(=O)c1ccc(CCNCc2ccc(-c3cccc(Cl)c3)o2)cc1,675
6,Cc1ccccc1CNC(=O)Cc1cn(C)c2ncccc12,689
7,COCCC1CCN(C(=O)c2nn(C)c3ccccc23)CC1,771
8,O=C(CC1CCN(C(=O)NC2CCCC2)CC1)N1CCCCC1,695
9,CCN1CCN(c2cc(C)c3cc(NC(=O)CC4CCCCC4)ccc3n2)CC1,594
10,O=C(NC1CCCC1)c1nc(Nc2ccc(F)cc2)c2ccccc2n1,824
11,O=C(CN1CC=C(c2cnn(-c3ccc(F)cc3)c2)CC1)N1CCCCC1,661
12,CC(C)(C)c1ccc(S(=O)(=O)N2CCCCC2C(=O)N2CCN(c3ccccc3F)CC2)cc1 (centres undefined),1280
13,CCC(C)(C)C(=O)NC1CCN(C2=NS(=O)(=O)C(c3cccc(Cl)c3)=C2C)CC1,915
14,CCn1ccc2cc(S(=O)(=O)N3CCCN(C(=O)Nc4ccccc4)CC3)ccc21,868
15,O=S(=O)(c1cc(-c2noc(C3CCCC3)n2)cs1)N1CCCC1,1110
16,O=C(NCC1(N2CCOCC2)CCOC1)Nc1ccc2c(c1)OCCO2 (centres undefined),589
17,CCC(C)(C)NS(=O)(=O)c1cc(-c2nc(C)cs2)n(C)c1C,1010
18,O=C(CN1C(=O)COc2ccc(C(=O)N3CCCC3)cc21)N1CCN(c2ccccc2)CC1,718
19,O=C(CN1C(=O)CCC1=O)N1CCC(c2noc(-c3cnccn3)n2)C1 (centres undefined),591
20,Cc1cc(N2CCN(C)CC2)n2nc(CN3CCN(c4cccc(C)c4C)CC3)nc2n1,570
21,Cn1c(NCCN(CCO)CCCc2ccc([N+](=O)[O-])cc2)cc(=O)n(C)c1=O,610

# Next, values leading:
row,RP-LC retention time [s],Compound
1,913,Cc1nc2ccccc2c(=O)n1Cc1noc(-c2cccc(Cl)c2)n1
2,929,Cc1ccc(C(C)C)c(OCC(=O)Nc2ccc(C(=O)O)cc2)c1
3,920,COc1ccc(-c2noc(Cn3ccn(-c4cc(C)ccc4C)c(=O)c3=O)n2)cc1
4,745,O=C(Cn1nc2c3cc(F)ccc3ncn2c1=O)Nc1ccc(Br)cc1
5,911,COc1ccccc1-c1noc(Cn2c(=O)n(-c3ccc(C)cc3)c(=O)c3sccc32)n1
6,597,Cc1ccc(NC(=O)C2CCCN(c3ccc(-n4ccnc4)nn3)C2)cc1F (centres undefined)
7,861,CCc1noc(NC(C)=O)c1-c1ccc(C)c(S(=O)(=O)Nc2c(C)cccc2C)c1
8,613,CC(C)CN1CCn2cc(C(=O)NC(C)c3ccccc3)nc2C1 (centres undefined)
9,732,CC(C)Oc1ccc(-c2noc(Cn3nc(-c4ccccc4)ccc3=O)n2)cc1
10,1030,Cc1oc2ccn(Cc3ccccc3F)c(=O)c2c1C(=O)NCc1cccs1
11,727,CN(C)S(=O)(=O)c1ccc(-c2nnc(C(=O)N3CCCC3)o2)cc1
12,695,O=C(NC1CCCCC1)C1CCCN(c2ccnc(-c3ccc(F)cc3)n2)C1 (centres undefined)
13,1040,CC1Oc2ccccc2N(Cc2nc(-c3ccccc3)no2)C1=O (centres undefined)
14,1000,CCOc1ccc(N2CC(c3nc(-c4ccccc4Cl)no3)CC2=O)cc1 (centres undefined)
15,638,CC(NC(=O)c1cn2c(n1)CSCC2)c1ccc(F)cc1 (centres undefined)
16,776,CCCCOc1ccc(S(=O)(=O)Nc2ccc(-c3cn4ccc(C)nc4n3)cc2)cc1
17,717,COc1ccc(-c2ncccc2CNS(=O)(=O)c2cc(C)cc(C)c2)cc1
18,1190,O=C(COc1ccc(Cl)cc1Cl)Nc1nc(-c2ccccc2)cs1
19,576,COc1ccc(NC(=O)CCNc2cnc3cnccn23)c(C)c1
20,1320,Cc1ccc(-c2csc(Cc3nc(-c4ccc(C)cc4)no3)n2)cc1
21,608,CCc1ccc2nc(NC3=NCN(Cc4cccnc4)CN3)nc(C)c2c1
22,1150,Cc1ccc(-n2c(=O)c3sccc3n(Cc3nc(-c4ccc(Cl)c(F)c4)no3)c2=O)cc1
23,674,O=C(O)C1CCN(c2nc3ccc(-c4cncnc4)nc3s2)CC1
24,883,Cc1cc(C)cc(C(=O)NC2CCN(c3cc(-c4ccc(Cl)cc4)[nH]n3)C2)c1 (centres undefined)

row,RP-LC retention time [s],Compound
1,651,CCc1nnc2ccc(-c3noc(CNC(=O)c4ccccc4)n3)cn12
2,829,Cn1c(=O)c(N2CCC(NC(=O)Nc3ccccc3)CC2)nc2ccccc21
3,867,Cn1cc(-c2ccc3c(c2)CCN3C(=O)Cc2cccc(C(F)(F)F)c2)c2c(N)ncnc21
4,596,CCC(=O)Nc1ccc(CCc2nc3ccc(C(=O)NCCCOC)cc3[nH]2)cc1
5,1020,COc1ccc(-c2nc(-c3ccc4nnn(C(C)C)c4c3)no2)cc1OC
6,1140,C=CCN1C(=O)COc2ccc(-c3nc(NC(=O)c4ccc(Cl)cc4)sc3C)cc21
7,857,Cc1ccc(-c2nc(-c3ccc(-n4ccnc4)nc3)no2)cc1C
8,933,O=C(NCc1nnc(SCc2c(F)cccc2Cl)o1)c1cccc(C(F)(F)F)c1
9,1210,Cc1nc2c(sc3nc(-c4ccccc4)ccc32)c(=O)n1CC(=O)Nc1cccc(C(C)C)c1
10,935,COc1ccc(CNC(=O)c2nnn(Cc3nc(-c4ccc(C)cc4)oc3C)c2N)cc1OC
11,663,COc1ccc(C[C@H](C)NC[C@@H](O)c2ccc(O)c(NC=O)c2)cc1
12,676,Cc1ccn2cc(-c3ccc(NC(=O)c4ccc(Cl)cc4)cc3)nc2n1
13,715,CCn1ccc2c(cc(C(=O)Nc3cc(OC)c(OC)c(OC)c3)n2C)c1=O
14,621,Cc1ccccc1CNC(=O)c1c(C)oc2c1C1=NCCN1C=N2
15,881,Cc1cnn(Cc2nc(-c3ccc(NC(=O)C4CCCCC4)cc3)oc2C)c1
16,701,Cc1ccc(C(=O)Nc2c(-c3ccc(F)cc3)nc3ccccn23)cc1[N+](=O)[O-]
17,653,CCc1nnc(NC(=O)CSc2nccn2-c2ccc(F)cc2)s1
18,738,Cc1ccccc1S(=O)(=O)N1CCC(n2cnnc2C(C)C)CC1
19,573,CCN(CC)c1ccc(NC(=O)C2CC(=O)N(c3cccc(NC(C)=O)c3)C2)c(C)c1 (centres undefined)
20,916,CCN1C(=O)c2cccnc2Sc2cc(NC(=O)COc3cccc(Cl)c3)ccc21
21,747,Cc1cccn2c(Nc3ccc4c(c3)OCCO4)c(-c3ccc(Cl)cc3)nc12
22,679,O=C(NCc1ccc(Br)cc1)c1ccc2ncnc(N3CCCC3)c2c1
23,922,COc1ccc(OC)c(NC(=O)N2CCC3(CC2)N=C(c2ccc(Cl)cc2)C(=O)N3)c1
